A short description of data set [1]: Inhibition of MC1 by NADH-DB reductase assay. Also on record: species or system Homo sapiens.
In data set [2] the test system is Rattus norvegicus. Briefly: Biodistribution in Sprague-Dawley rat urine at 15 uCi, iv after 30 mins. The data set is classed as ADME, organism-based. The conditions noted are these: in vivo, 0.5 h.
Data set [3] has as its system Nucleic Acid. As to the kind of experiment: Ratio of drug uptake in heart to liver of Sprague-Dawley rat at 60 mins. The data set is classed as ADME. The following applies: in vivo, 1 h.
The subject of data set [4] is Muscle tissue. As to the kind of experiment: Biodistribution in Sprague-Dawley rat muscle at 15 uCi, iv after 30 mins. The data set is classed as ADME, organism-based. The following applies: in vivo, 0.5 h.
Data set [5] deals with Lung. Briefly: Biodistribution in Sprague-Dawley rat lung at 15 uCi, iv after 30 mins. In kind it is ADME, organism-based. The following applies: in vivo, 0.5 h.
The test system of data set [6] is Heart. As to the kind of experiment: Biodistribution in Sprague-Dawley rat heart at 15 uCi, iv after 30 mins. In kind it is ADME, organism-based. The following applies: in vivo, 0.5 h.
The test system of data set [7] is Femur. Briefly: Biodistribution in Sprague-Dawley rat femur at 15 uCi, iv after 120 mins. In kind it is ADME, organism-based. The conditions noted are these: in vivo, 2 h.
The test system of data set [8] is Muscle tissue. As to the kind of experiment: Biodistribution in Sprague-Dawley rat muscle at 15 uCi, iv after 120 mins. The following applies: in vivo, 2 h. In kind it is ADME, organism-based.
Data set [9] has as its system Liver. As to the kind of experiment: Biodistribution in Sprague-Dawley rat liver at 15 uCi, iv after 120 mins. The data set is classed as ADME, organism-based. The following applies: in vivo, 2 h.
Data set [10] deals with Lung. Briefly: Biodistribution in Sprague-Dawley rat lung at 15 uCi, iv after 120 mins. The data set is classed as ADME, organism-based. The conditions noted are these: in vivo, 2 h.
Data set [11] relates to Kidney. As to the kind of experiment: Biodistribution in Sprague-Dawley rat kidney at 15 uCi, iv after 120 mins. The conditions noted are these: in vivo, 2 h. The data set is classed as ADME, organism-based.
Data set [12] has as its system Liver. Briefly: Biodistribution in Sprague-Dawley rat liver at 15 uCi, iv after 30 mins. The data set is classed as ADME, organism-based. The following applies: in vivo, 0.5 h.
The test system of data set [13] is Nucleic Acid. As to the kind of experiment: Ratio of drug uptake in heart to lung of Sprague-Dawley rat at 60 mins. In kind it is ADME. The conditions noted are these: in vivo, 1 h.
Data set [14] has as its system Nucleic Acid. Briefly: Ratio of drug uptake in heart to lung of Sprague-Dawley rat at 30 mins. The conditions noted are these: in vivo, 0.5 h. In kind it is ADME.
For data set [15], the system named is Spleen. Briefly: Biodistribution in Sprague-Dawley rat spleen at 15 uCi, iv after 120 mins. The data set is classed as ADME, organism-based. The conditions noted are these: in vivo, 2 h.
Data set [16] relates to Spleen. Briefly: Biodistribution in Sprague-Dawley rat spleen at 15 uCi, iv after 30 mins. The data set is classed as ADME, organism-based. The following applies: in vivo, 0.5 h.
Data set [17] concerns Kidney. Briefly: Biodistribution in Sprague-Dawley rat kidney at 15 uCi, iv after 30 mins. The following applies: in vivo, 0.5 h. The data set is classed as ADME, organism-based.
For data set [18], the system named is Femur. Briefly: Biodistribution in Sprague-Dawley rat femur at 15 uCi, iv after 30 mins. The following applies: in vivo, 0.5 h. The data set is classed as ADME, organism-based.
Data set [19] has as its system Blood. Briefly: Biodistribution in Sprague-Dawley rat blood at 15 uCi, iv after 120 mins. In kind it is ADME, organism-based. The following applies: in vivo, 2 h.
For data set [20], the system named is Heart. As to the kind of experiment: Biodistribution in Sprague-Dawley rat heart at 15 uCi, iv after 120 mins. The following applies: in vivo, 2 h. The data set is classed as ADME, organism-based.
For data set [21], the system named is Nucleic Acid. As to the kind of experiment: Ratio of drug uptake in heart to liver of Sprague-Dawley rat at 30 mins. In kind it is ADME. The conditions noted are these: in vivo, 0.5 h.
In data set [22] the test system is Nucleic Acid. As to the kind of experiment: Ratio of drug uptake in heart to femur of Sprague-Dawley rat at 60 mins. The data set is classed as ADME. The following applies: in vivo, 1 h.
The subject of data set [23] is Rattus norvegicus. As to the kind of experiment: Biodistribution in Sprague-Dawley rat urine at 15 uCi, iv after 120 mins. In kind it is ADME, organism-based. The conditions noted are these: in vivo, 2 h.
Data set [24] has as its system Blood. As to the kind of experiment: Biodistribution in Sprague-Dawley rat blood at 15 uCi, iv after 30 mins. The conditions noted are these: in vivo, 0.5 h. In kind it is ADME, organism-based.

The term IC50 denotes the concentration that gives 50% inhibition. A lower IC50 goes with greater potency. In data set [1], `CCCC(O)c1ccc(CCOc2ncnc3ccccc23)cc1` (configuration not stated) registered an IC50 of 21.7 nM.

In data set [1], `CCCCc1ccc(COc2ncnc3ccccc23)cc1` returned an IC50 of 1000 nM.

As for `CCCCc1ccc(CCOc2ncnc3ccccc23)cc1`, in data set [1], the IC50 came out at 37.5 nM.

Turning to `OCCCCc1ccc(COc2ncnc3ccccc23)cc1`, in data set [1], the IC50 was found to be 414 nM.

Regarding `[18F]CCCCCc1ccc(CCOc2ncnc3ccccc23)cc1`, the Drug uptake in [2] is reported as 0.5 % ID/g; in data set [4], 0.08 % ID/g; in [5] it was 0.28 % ID/g; in [6], 3.22 % ID/g; in data set [7], 0.65 % ID/g; in data set [8], 0.12 % ID/g. Also, the Drug uptake came to 0.44 % ID/g in data set [9]; 0.11 % ID/g in data set [10]; 0.68 % ID/g in [11]; 1.29 % ID/g in [12]; 0.07 % ID/g in data set [15]; 0.19 % ID/g in data set [16]. The Drug uptake in [17] came out at 1.99 % ID/g; in [18], 0.19 % ID/g; in [19] it was 0.06 % ID/g; in data set [20] it was 2.5 % ID/g; in data set [23] it was 4.44 % ID/g; in data set [24] it was 0.08 % ID/g. The Ratio in [3] amounted to 5.7; in data set [13] it was 2.5; in [14], 11.3; in data set [21], 23; in data set [22], 3.6.

In data set [1], `OCCCCc1ccc(CCOc2ncnc3ccccc23)cc1` came in with an IC50 of 22.4 nM.

In [1], `CCCC(F)c1ccc(CCOc2ncnc3ccccc23)cc1` (configuration not stated) displayed an IC50 of 19.3 nM.

With `CC(C)(C)c1ccc(CCOc2ncnc3ccccc23)cc1` [FENAZAQUIN], the midpoint of inhibition in [1], the IC50, lay at 4 nM.

In [1], `CC(C)(C)c1ccc(CNc2ncnc3ccccc23)cc1` returned an IC50 of 241 nM.

The compound `FCCCCCc1ccc(CCOc2ncnc3ccccc23)cc1` registered an IC50 in [1] of 11.3 nM.
